Data on 36 molecules can be found in ChEMBL document CHEMBL5052852, “Substituted hydantoinamides as adamts7 antagonists” (2021).

What is called IC50 is the concentration that gives 50% inhibition.

Assay [1] in a line: Inhibition of recombinant rat/human ADAMTS7 hybrid using HiLyteFluor-488 DELSSMVLELRGLRT-K(QXL520)-E-NH2 as substrate incubated for 120 mins and measured by FRET assay.
A short description of assay [2]: Inhibition of recombinant rat/human ADAMTS12 hybrid using HiLyteFluor-488 DELSSMVLELRGLRT-K(QXL520)-E-NH2 as substrate incubated for 120 mins and measured by FRET assay.

Turning to `O=C1NC(=O)C(CNC(=O)c2cnn(-c3ccc(F)cc3)n2)(C2CCC2)N1` (single isomer, unassigned), the IC50 in assay [1] amounted to 24 nM; in assay [2], 4380 nM.
Take `O=C1NC(=O)C(CNC(=O)c2cnn(-c3ccc(F)cc3)n2)(c2ccnn2C(F)F)N1` (single isomer, unassigned; atropisomer): the IC50 in assay [1] amounted to 18 nM; in assay [2], 1700 nM.
For `O=C1NC(=O)C(CNC(=O)c2cnn(-c3ccccc3)n2)(C2CCC2)N1` (stereo in doubt), in that order: 78 nM and 11000 nM.
For `O=C1NC(=O)C(CNC(=O)c2cnn(-c3ccccc3)n2)(c2ccccn2)N1` (stereo in doubt) the same measures were 10 nM and 2800 nM.
On to `CCCCC1(CNC(=O)c2cnn(-c3ccc(F)cc3)n2)NC(=O)NC1=O` (stereo in doubt), for which the IC50 in assay [1] was 48 nM; in assay [2] it was 3100 nM.
For `CCCCC1(CNC(=O)c2cnn(-c3ccccc3)n2)NC(=O)NC1=O` (stereo in doubt) the same measures were 191 nM and 19000 nM.
For `CC(C)C1(CNC(=O)c2cnn(-c3cc(F)c(F)c(F)c3)n2)NC(=O)NC1=O` (stereo in doubt) the same measures were 20 nM and 3300 nM.
For `CC(C)C1(CNC(=O)c2cnn(-c3cccc(C#N)c3)n2)NC(=O)NC1=O` (stereo in doubt), in that order: 78 nM and 2600 nM.
Regarding `Cn1ccnc1C1(CNC(=O)c2cnn(-c3ccc(F)cc3)n2)NC(=O)NC1=O` (stereo in doubt), the results for the IC50 in assay [1] and in assay [2] were 2 nM and 130 nM, respectively.
For the molecule `CC(C)C1(CNC(=O)c2cnn(-c3ccccc3)n2)NC(=O)NC1=O` (stereo in doubt), the IC50 in assay [1] turned out to be 76 nM; in assay [2], 10000 nM.
For `O=C1NC(=O)C(CNC(=O)c2cnn(-c3ccc(F)c(Cl)c3)n2)(c2nccs2)N1` (stereo in doubt), in that order: 14 nM and 780 nM.
`CC(C)(C)C1(CNC(=O)c2cnn(-c3ccc(F)cc3)n2)NC(=O)NC1=O` (stereo in doubt): the values for the IC50 in assay [1] and in assay [2] were 79 nM and 2200 nM, respectively.
On to `O=C1NC(=O)C(CNC(=O)c2cnn(-c3ccc(Cl)c(F)c3)n2)(c2nccs2)N1` (stereo in doubt), for which the figures for the IC50 in assay [1] and in assay [2] were 5 nM and 400 nM, respectively.
For the molecule `Cc1scnc1C1(CNC(=O)c2cnn(-c3ccc(F)cc3)n2)NC(=O)NC1=O` (stereo in doubt), the figures for the IC50 in assay [1] and in assay [2] were 2 nM and 200 nM, respectively.
Consider `O=C1NC(=O)C(CNC(=O)c2cnn(-c3ccc(F)cc3)n2)(c2nccs2)N1` (stereo in doubt), for which the IC50 was 15 nM in assay [1] and 1400 nM in assay [2].
Take `CC(C)C1(CNC(=O)c2cnn(-c3ccc(F)c(F)c3)n2)NC(=O)NC1=O` (stereo in doubt): the IC50 in assay [1] was 7 nM; in assay [2], 910 nM.
Take `O=C1NC(=O)C(CNC(=O)c2cnn(-c3ccc(F)cc3)n2)(c2ncsc2C(F)(F)F)N1` (stereo in doubt): the figures for the IC50 in assay [1] and in assay [2] were 27 nM and 3500 nM, respectively.
For `CC(C)C1(CNC(=O)c2cnn(-c3ccc(Cl)c(F)c3)n2)NC(=O)NC1=O` (stereo in doubt), in that order: 7 nM and 1000 nM.
As to `CC(C)C1(CNC(=O)c2cnn(-c3cccc(F)c3)n2)NC(=O)NC1=O` (stereo in doubt), the IC50 was determined as 13 nM in assay [1] and 2300 nM in assay [2].
In the case of `O=C1NC(=O)C(CNC(=O)c2cnn(-c3ccc(F)cc3)n2)(CC2CC2)N1` (stereo in doubt), the values for the IC50 in assay [1] and in assay [2] were 130 nM and 6200 nM, respectively.
As for `Cn1ccnc1C1(CNC(=O)c2cnn(-c3cc(F)c(F)c(F)c3)n2)NC(=O)NC1=O` (stereo in doubt), the values for the IC50 in assay [1] and in assay [2] were 3 nM and 108 nM, respectively.
`CC1(CNC(=O)c2cnn(-c3ccc(F)cc3)n2)NC(=O)NC1=O` (stereo in doubt): the IC50 was 83 nM in assay [1] and 8900 nM in assay [2].
For `O=C1NC(=O)C(CNC(=O)c2cnn(-c3ccc(F)cc3)n2)(C2CCCC2)N1` (stereo in doubt), in that order: 33 nM and 5900 nM.
As for `O=C1NC(=O)C(CNC(=O)c2cnn(-c3ccc(F)cc3)n2)(C2CCOCC2)N1` (stereo in doubt), the IC50 came to 37 nM in assay [1] and 1500 nM in assay [2].
Turning to `O=C1NC(=O)C(CNC(=O)c2cnn(-c3ccccc3)n2)(C2CCCC2)N1` (stereo in doubt), the IC50 in assay [1] is 120 nM; in assay [2], 11000 nM.
For `CC(C)(C)C1(CNC(=O)c2cnn(-c3ccccc3)n2)NC(=O)NC1=O` (stereo in doubt) the same measures were 47 nM and 13100 nM.
`CC(C)C1(CNC(=O)c2cnn(-c3ccc(F)cc3)n2)NC(=O)NC1=O` (stereo in doubt): the figures for the IC50 in assay [1] and in assay [2] were 8 nM and 2770 nM, respectively.
In the case of `O=C1NC(=O)C(CNC(=O)c2cnn(-c3ccc(F)cc3F)n2)(c2nccs2)N1` (stereo in doubt), the IC50 in assay [1] turned out to be 78 nM; in assay [2], 5500 nM.
As to `CCCC1(CNC(=O)c2cnn(-c3ccc(F)cc3)n2)NC(=O)NC1=O` (stereo in doubt), the values for the IC50 in assay [1] and in assay [2] were 60 nM and 5100 nM, respectively.
For `CCC(C)C1(CNC(=O)c2cnn(-c3ccc(F)cc3)n2)NC(=O)NC1=O` (stereo in doubt; form 1), in that order: 62 nM and 2900 nM.
On to `CC1(C)CC1C1(CNC(=O)c2cnn(-c3ccccc3)n2)NC(=O)NC1=O` (stereo in doubt; form 1), for which the IC50 in assay [1] turned out to be 320 nM; in assay [2], 13000 nM.
For `O=C1NC(=O)C(CNC(=O)c2cnn(-c3ccccc3)n2)(C2CCCOC2)N1` (stereo in doubt; form 1), in that order: 150 nM and 4000 nM.
Turning to `CCC(C)C1(CNC(=O)c2cnn(-c3ccc(F)cc3)n2)NC(=O)NC1=O` (stereo in doubt; form 2), the IC50 was 37 nM in assay [1] and 1000 nM in assay [2].
As to `CC1(C)CC1C1(CNC(=O)c2cnn(-c3ccccc3)n2)NC(=O)NC1=O` (stereo in doubt; form 2), the values for the IC50 in assay [1] and in assay [2] were 38 nM and 2000 nM, respectively.
`O=C1NC(=O)C(CNC(=O)c2cnn(-c3ccccc3)n2)(C2CCCOC2)N1` (stereo in doubt; form 2): the IC50 in assay [1] was determined as 250 nM; in assay [2], 6500 nM.
Take `O=C1NC(=O)C(CNC(=O)c2cnn(-c3ccc(F)cc3)n2)(c2ccccn2)N1` (stereo in doubt; form 2): the IC50 in assay [1] was 590 nM; in assay [2] it was 50000 nM.
